T/C data for 22 compounds are collected here from PubChem BioAssay AID248 (DTP/NCI, 2004).

Several values for one entry are separate records, joined by “and”; a condition that tells them apart may be missing. Identical values can stand only once. Inconclusive results and toxic doses are left out.

For this assay, the system named is L1210 leukemia ip in BDF1 mice, survival T/C. Put plainly: NCI In Vivo Anticancer Drug Screen. Data for tumor model L1210 Leukemia (intraperitoneal) in B6D2F1 (BDF1) mice. As to conditions: endpoint: mean survival time, higher = longer survival. In a few lines: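 Survival endpoint. Drug-treated group vs vehicle group, expressed as T divided by C. Tumor passaged by transplantation.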

Setting [1] is: dose: 100.0 mg/kg/injection, schedule: Q01DX001 (ip), vehicle: carboxymethylcellulose (CMC).
Setting [2] is: dose: 200.0 mg/kg/injection, schedule: Q01DX001 (ip), vehicle: carboxymethylcellulose (CMC).
Where [3] appears, read: dose: 400.0 mg/kg/injection, schedule: Q01DX001 (ip), vehicle: carboxymethylcellulose (CMC).
The mark [4] stands for this setting: dose: 100.0 mg/kg/injection, schedule: Q04DX002 (ip), vehicle: Klucel (hydroxypropylcellulose) (HPC).
Setting [5] is: dose: 200.0 mg/kg/injection, schedule: Q04DX002 (ip), vehicle: Klucel (hydroxypropylcellulose) (HPC).
The mark [6] stands for this setting: dose: 400.0 mg/kg/injection, schedule: Q04DX002 (ip), vehicle: Klucel (hydroxypropylcellulose) (HPC).
Setting [7] is: dose: 20.0 mg/kg/injection, schedule: Q04DX003 (ip), vehicle: Klucel (hydroxypropylcellulose) (HPC).
[8] abbreviates: dose: 100.0 mg/kg/injection, schedule: Q04DX003 (ip), vehicle: Klucel (hydroxypropylcellulose) (HPC).
Setting [9] is: dose: 100.0 mg/kg/injection, schedule: Q01DX009 (ip), vehicle: Klucel (hydroxypropylcellulose) (HPC).
[10] abbreviates: dose: 200.0 mg/kg/injection, schedule: Q01DX009 (ip), vehicle: Klucel (hydroxypropylcellulose) (HPC).
Where [11] appears, read: dose: 400.0 mg/kg/injection, schedule: Q01DX009 (ip), vehicle: Klucel (hydroxypropylcellulose) (HPC).
The mark [12] stands for this setting: dose: 75.0 mg/kg/injection, schedule: Q01DX001 (ip), vehicle: carboxymethylcellulose (CMC).

As for `COc1ccc(CC(=O)NCCc2ccccc2)cc1`, the T/C is 96 % of control under setting [1], 98 % of control under setting [2] and 96 % of control under setting [3].

On to `COC1CC(OC2C(C)C(=O)OC(C)C(C)C(OC(C)=O)C(C)C(=O)C3(CO3)CC(C)C(OC3OC(C)CC(N(C)C)C3OC(C)=O)C2C)OC(C)C1OC(C)=O` (stereo unspecified), for which the T/C is, setting by setting: under setting [1], 108 % of control; under setting [2], 113 % of control; under setting [3], 108 % of control.

Turning to `CCOC(=O)N(C1CCCCC1)P(=O)(OCC)OCC`, the T/C is, setting by setting: (dose: 12.5 mg/kg/injection, schedule: Q01DX009 (ip), vehicle: saline) 96 % of control and 108 % of control; (dose: 12.5 mg/kg/injection, schedule: Q04DX003 (ip), vehicle: saline) 100 % of control; (dose: 25.0 mg/kg/injection, schedule: Q01DX009 (ip), vehicle: saline) 100 % of control and 91 % of control; (dose: 25.0 mg/kg/injection, schedule: Q04DX003 (ip), vehicle: saline) 107 % of control; (dose: 50.0 mg/kg/injection, schedule: Q01DX009 (ip), vehicle: saline) 97 % of control and 100 % of control; (dose: 50.0 mg/kg/injection, schedule: Q04DX003 (ip), vehicle: saline) 110 % of control. The T/C (dose: 100.0 mg/kg/injection, schedule: Q01DX009 (ip), vehicle: saline) is 103 % of control and 91 % of control; the T/C (dose: 100.0 mg/kg/injection, schedule: Q04DX003 (ip), vehicle: saline) is 103 % of control; the T/C (dose: 200.0 mg/kg/injection, schedule: Q04DX003 (ip), vehicle: saline) was 100 % of control.

For `CNC(=O)C1=Cc2cc(Cl)ccc2OC1`, the T/C is, setting by setting: (dose: 75.0 mg/kg/injection, schedule: Q04DX003 (ip), vehicle: saline with Tween-80) 98 % of control; (dose: 150.0 mg/kg/injection, schedule: Q04DX003 (ip), vehicle: saline with Tween-80) 92 % of control; (dose: 300.0 mg/kg/injection, schedule: Q04DX003 (ip), vehicle: saline with Tween-80) 95 % of control.

As to `O=C(O)c1ccc(/C=N/N=C2c3ccccc3-c3ccccc32)cc1`, the T/C is 91 % of control (dose: 75.0 mg/kg/injection, schedule: Q01DX001 (ip), vehicle: other); 86 % of control (dose: 150.0 mg/kg/injection, schedule: Q01DX001 (ip), vehicle: other); 95 % of control (dose: 300.0 mg/kg/injection, schedule: Q01DX001 (ip), vehicle: other).

With `O=S(=O)(O)C(I)I`, the T/C is 103 % of control (dose: 6.25 mg/kg/injection, schedule: Q01DX001 (ip), vehicle: saline); 100 % of control (dose: 12.5 mg/kg/injection, schedule: Q01DX001 (ip), vehicle: saline); 98 % of control and 100 % of control (dose: 25.0 mg/kg/injection, schedule: Q01DX001 (ip), vehicle: saline); 103 % of control (dose: 100.0 mg/kg/injection, schedule: Q01DX001 (ip), vehicle: saline).

With `CCOC(=O)C(O)C(Cl)(CC)c1ccccc1` (stereo unspecified), the T/C reads like this: under setting [4], 95 % of control; under setting [5], 100 % of control; under setting [6], 122 % of control.

In the case of `CC(C)(C)COC(=O)CCN1CC1`, the T/C is, setting by setting: (dose: 20.0 mg/kg/injection, schedule: Q01DX009 (ip), vehicle: Klucel (hydroxypropylcellulose) (HPC)) 119 % of control; under setting [7], 103 % of control; (dose: 40.0 mg/kg/injection, schedule: Q01DX009 (ip), vehicle: Klucel (hydroxypropylcellulose) (HPC)) 97 % of control; (dose: 40.0 mg/kg/injection, schedule: Q04DX003 (ip), vehicle: Klucel (hydroxypropylcellulose) (HPC)) 114 % of control; (dose: 80.0 mg/kg/injection, schedule: Q04DX003 (ip), vehicle: Klucel (hydroxypropylcellulose) (HPC)) 101 % of control; under setting [8], 110 % of control.

Turning to `O=[N+]([O-])c1ccc(C(Cl)C2(Br)C=c3ccccc3=C2)cc1` (stereo unspecified), the T/C under setting [9] was 103 % of control; the T/C under setting [8] is 105 % of control; the T/C under setting [10] is 98 % of control; the T/C (dose: 200.0 mg/kg/injection, schedule: Q04DX003 (ip), vehicle: Klucel (hydroxypropylcellulose) (HPC)) is 94 % of control; the T/C under setting [11] is 95 % of control; the T/C (dose: 400.0 mg/kg/injection, schedule: Q04DX003 (ip), vehicle: Klucel (hydroxypropylcellulose) (HPC)) is 97 % of control.

On to `O=[N+]([O-])c1cc2c(cc1Br)-c1ccccc1/C2=N\O`, for which the T/C under setting [1] is 103 % of control, the T/C under setting [2] was 101 % of control and the T/C under setting [3] was 97 % of control.

For the compound `CSc1ccc(OC(=O)Nc2ccccc2F)cc1`, the T/C is 108 % of control (dose: 50.0 mg/kg/injection, schedule: Q01DX009 (ip), vehicle: saline with Tween-80) and 103 % of control (dose: 100.0 mg/kg/injection, schedule: Q01DX009 (ip), vehicle: saline with Tween-80).

Consider `CCS(=O)(=O)N1CCCC(C)C1` (stereo unspecified), for which the T/C was 105 % of control (dose: 100.0 mg/kg/injection, schedule: Q04DX002 (ip), vehicle: saline with Tween-80); 92 % of control (dose: 200.0 mg/kg/injection, schedule: Q04DX002 (ip), vehicle: saline with Tween-80); 92 % of control (dose: 400.0 mg/kg/injection, schedule: Q04DX002 (ip), vehicle: saline with Tween-80).

`Cc1ccc(NC(=O)COc2ccc([N+](=O)[O-])cc2Cl)cc1S(=O)(=O)F`: the T/C by setting is: (dose: 87.5 mg/kg/injection, schedule: Q04DX003 (ip), vehicle: gum acacia) 97 % of control; (dose: 175.0 mg/kg/injection, schedule: Q04DX003 (ip), vehicle: gum acacia) 100 % of control; (dose: 350.0 mg/kg/injection, schedule: Q04DX003 (ip), vehicle: gum acacia) 94 % of control.

Turning to `O=C1C=C(Nc2ccc(Cl)cc2)C(=O)c2ccccc21`, the T/C is, setting by setting: under setting [12], 93 % of control; (dose: 300.0 mg/kg/injection, schedule: Q01DX001 (ip), vehicle: carboxymethylcellulose (CMC)) 87 % of control.

On to `Cc1cccc(N)n1`, for which the T/C is, setting by setting: (dose: 25.0 mg/kg/injection, schedule: Q04DX002 (ip), vehicle: saline) 89 % of control; (dose: 50.0 mg/kg/injection, schedule: Q04DX002 (ip), vehicle: saline) 92 % of control.

Consider `CCOC(=O)CCC(NC(=O)c1ccc(N(C)C(=O)OCc2ccccc2)cc1)C(=O)OCC` (stereo unspecified), for which the T/C by setting is: under setting [2], 100 % of control; under setting [3], 94 % of control.

As for `O=[N+]([O-])c1cc([N+](=O)[O-])c(Br)cc1Cl`, the T/C reads like this: (dose: 10.0 mg/kg/injection, schedule: Q04DX003 (ip), vehicle: Klucel (hydroxypropylcellulose) (HPC)) 93 % of control; under setting [7], 96 % of control.

`O=C(c1ccccc1)C(O)(c1ccccc1)c1ccccc1`: the T/C under setting [4] is 89 % of control, the T/C under setting [5] is 107 % of control and the T/C under setting [6] was 93 % of control.

`CCCCC(=O)OCC1OC(n2cnc3c(=S)nc[nH]c32)C(OC(=O)CCCC)C1OC(=O)CCCC` (stereo unspecified): the T/C reads like this: (dose: 50.0 mg/kg/injection, schedule: Q01DX015 (ip), vehicle: carboxymethylcellulose (CMC)) 151 % of control; (dose: 50.0 mg/kg/injection, schedule: Q01DX Z (ip), vehicle: carboxymethylcellulose (CMC)) 117 % of control; (dose: 100.0 mg/kg/injection, schedule: Q01DX015 (ip), vehicle: carboxymethylcellulose (CMC)) 172 % of control; (dose: 200.0 mg/kg/injection, schedule: Q01DX Z (ip), vehicle: carboxymethylcellulose (CMC)) 161 % of control; (dose: 400.0 mg/kg/injection, schedule: Q01DX Z (ip), vehicle: carboxymethylcellulose (CMC)) 87 % of control.

Turning to `O=CCC1C=CCC1` (stereo unspecified), the T/C is, setting by setting: under setting [12], 101 % of control; (dose: 150.0 mg/kg/injection, schedule: Q01DX001 (ip), vehicle: carboxymethylcellulose (CMC)) 103 % of control.

On to `c1ccc(C/C(N=Nc2ccccc2)=N\Nc2ccccc2)cc1`, for which the T/C is 92 % of control (dose: 50.0 mg/kg/injection, schedule: Q01DX009 (ip), vehicle: Klucel (hydroxypropylcellulose) (HPC)); 92 % of control under setting [9]; 91 % of control under setting [10]; 105 % of control under setting [11].

For `CCOc1ccc(C(=O)Cc2ccccc2)cc1`, the T/C (dose: 100.0 mg/kg/injection, schedule: Q04DX003 (ip), vehicle: saline with Tween-80) was 89 % of control; the T/C (dose: 200.0 mg/kg/injection, schedule: Q04DX003 (ip), vehicle: saline with Tween-80) was 86 % of control; the T/C (dose: 400.0 mg/kg/injection, schedule: Q04DX003 (ip), vehicle: saline with Tween-80) is 91 % of control.
